Several values for one entry are separate records, joined by “and”; a condition that tells them apart may be missing. Equal entries are not always repeated. Toxic doses and inconclusive results are not listed.
Tested on: BDF1 mice, P388 leukemia ip, median survival T/C
Assay: NCI In Vivo Anticancer Drug Screen. Data for tumor model P388 Leukemia (intraperitoneal) in B6D2F1 (BDF1) mice
Details: endpoint: median survival time, higher = longer survival
In short: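 Mice carrying the transplantable tumour receive compound or vehicle. Survival is followed in each arm, and the treated measure is divided by the vehicle measure.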

[1] = dose: 25.0 mg/kg/injection, schedule: Q01DX009 (ip), vehicle: saline
[2] = dose: 50.0 mg/kg/injection, schedule: Q01DX009 (ip), vehicle: saline
[3] = dose: 50.0 mg/kg/injection, schedule: Q04DX003 (ip), vehicle: saline
[4] = dose: 100.0 mg/kg/injection, schedule: Q04DX003 (ip), vehicle: saline
[5] = dose: 100.0 mg/kg/injection, schedule: Q01DX009 (ip), vehicle: Klucel (hydroxypropylcellulose) (HPC)
[6] = dose: 15.0 mg/kg/injection, schedule: Q01DX009 (ip), vehicle: saline with Tween-80
[7] = dose: 30.0 mg/kg/injection, schedule: Q01DX009 (ip), vehicle: saline with Tween-80
[8] = dose: 100.0 mg/kg/injection, schedule: Q01DX009 (ip), vehicle: saline
[9] = dose: 100.0 mg/kg/injection, schedule: Q01DX009 (ip), vehicle: saline with Tween-80

With `Nc1nc(N)nc(CCP(CCc2nc(N)nc(N)n2)CCc2nc(N)nc(N)n2)n1` the T/C (dose: 50.0 mg/kg/injection, schedule: Q04DX003 (ip), vehicle: saline sonified) was 100 % of control, the T/C (dose: 100.0 mg/kg/injection, schedule: Q04DX003 (ip), vehicle: saline sonified) was 110 % of control and the T/C (dose: 200.0 mg/kg/injection, schedule: Q04DX003 (ip), vehicle: saline sonified) was 110 % of control.

In the case of `Cc1cccc(S(=O)(=O)F)c1`, the T/C (dose: 37.5 mg/kg/injection, schedule: Q01DX009 (ip), vehicle: Klucel (hydroxypropylcellulose) (HPC)) is reported as 104 % of control, the T/C (dose: 75.0 mg/kg/injection, schedule: Q01DX009 (ip), vehicle: Klucel (hydroxypropylcellulose) (HPC)) is reported as 95 % of control and the T/C (dose: 150.0 mg/kg/injection, schedule: Q01DX009 (ip), vehicle: Klucel (hydroxypropylcellulose) (HPC)) is reported as 90 % of control.

For `CCC(C)NC(=S)N/N=C\C=N/NC(=S)NC(C)CC` (stereo not given), the T/C (dose: 75.0 mg/kg/injection, schedule: Q01DX009 (ip), vehicle: saline with Tween-80) was 99 % of control, the T/C (dose: 150.0 mg/kg/injection, schedule: Q01DX009 (ip), vehicle: saline with Tween-80) was 92 % of control and the T/C (dose: 300.0 mg/kg/injection, schedule: Q01DX009 (ip), vehicle: saline with Tween-80) was 103 % of control.

In the case of `CC/C(=C\c1ccccc1)[N+](=O)[O-]`, the T/C (dose: 12.5 mg/kg/injection, schedule: Q01DX009 (ip), vehicle: saline) is reported as 96 % of control, the T/C [1] is reported as 114 % of control and 124 % of control and the T/C [2] is reported as 123 % of control. The T/C [3] was 109 % of control and the T/C [4] was 100 % of control.

With `CC1(c2cccc3ccccc23)NC(=O)c2ccccc2N1` (stereo not given) the T/C (dose: 50.0 mg/kg/injection, schedule: Q01DX009 (ip), vehicle: Klucel (hydroxypropylcellulose) (HPC)) was 105 % of control and the T/C [5] was 120 % of control.

In the case of `CC1CN1S(=O)(=O)N1CC1C` (stereo not given), the T/C (dose: 3.75 mg/kg/injection, schedule: Q01DX009 (ip), vehicle: saline with Tween-80) is reported as 100 % of control, the T/C (dose: 7.5 mg/kg/injection, schedule: Q01DX009 (ip), vehicle: saline with Tween-80) is reported as 112 % of control and the T/C [6] is reported as 158 % of control. The T/C (dose: 16.5 mg/kg/injection, schedule: Q04DX003 (ip), vehicle: saline with Tween-80) was 113 % of control, the T/C (dose: 25.0 mg/kg/injection, schedule: Q04DX003 (ip), vehicle: saline with Tween-80) was 154 % of control and 213 % of control and the T/C [7] was 258 % of control. For the same compound, the T/C (dose: 37.5 mg/kg/injection, schedule: Q04DX003 (ip), vehicle: saline with Tween-80) was 204 % of control.

`Cc1nc[nH]c(=O)c1N` was tested, and the T/C [2] was 102 % of control, the T/C [8] was 102 % of control and the T/C (dose: 200.0 mg/kg/injection, schedule: Q01DX009 (ip), vehicle: saline) was 102 % of control.

For `N/C(=N/O)c1[nH]cnc1N`, the T/C (dose: 12.5 mg/kg/injection, schedule: Q01DX009 (ip), vehicle: water) was 101 % of control, the T/C (dose: 25.0 mg/kg/injection, schedule: Q01DX009 (ip), vehicle: water) was 97 % of control and the T/C (dose: 50.0 mg/kg/injection, schedule: Q01DX009 (ip), vehicle: water) was 103 % of control. For the same compound, the T/C (dose: 100.0 mg/kg/injection, schedule: Q01DX009 (ip), vehicle: water) was 103 % of control.

For `CC[C@H]1CN2CCc3cc(OC)c(OC)cc3[C@@H]2C[C@@H]1C[C@H]1NCCc2c1[nH]c1ccc(OC)cc21`, the T/C (dose: 16.0 mg/kg/injection, schedule: Q04DX003 (ip), vehicle: saline) was 183 % of control, the T/C (dose: 18.0 mg/kg/injection, schedule: Q04DX003 (ip), vehicle: acid diluted with saline) was 166 % of control and the T/C (dose: 30.0 mg/kg/injection, schedule: Q04DX003 (ip), vehicle: acid diluted with saline) was 150 % of control. The T/C (dose: 32.0 mg/kg/injection, schedule: Q04DX003 (ip), vehicle: saline) was 186 % of control and the T/C (dose: 64.0 mg/kg/injection, schedule: Q04DX003 (ip), vehicle: saline) was 102 % of control.

With `CC(C)=NNS(=O)(=O)c1ccccc1` the T/C (dose: 50.0 mg/kg/injection, schedule: Q04DX003 (ip), vehicle: saline with Tween-80) was 95 % of control, the T/C (dose: 100.0 mg/kg/injection, schedule: Q04DX003 (ip), vehicle: saline with Tween-80) was 90 % of control and the T/C (dose: 200.0 mg/kg/injection, schedule: Q04DX003 (ip), vehicle: saline with Tween-80) was 95 % of control.

For `CCCN(CCC)c1ccc(/C=C/c2ccc3cc(OCC)ccc3n2)cc1`, the T/C [5] was 100 % of control, the T/C (dose: 100.0 mg/kg/injection, schedule: Q04DX003 (ip), vehicle: Klucel (hydroxypropylcellulose) (HPC)) was 104 % of control and the T/C (dose: 200.0 mg/kg/injection, schedule: Q01DX009 (ip), vehicle: Klucel (hydroxypropylcellulose) (HPC)) was 100 % of control. For the same compound, the T/C (dose: 200.0 mg/kg/injection, schedule: Q04DX003 (ip), vehicle: Klucel (hydroxypropylcellulose) (HPC)) was 104 % of control, the T/C (dose: 400.0 mg/kg/injection, schedule: Q01DX009 (ip), vehicle: Klucel (hydroxypropylcellulose) (HPC)) was 90 % of control and the T/C (dose: 400.0 mg/kg/injection, schedule: Q04DX003 (ip), vehicle: Klucel (hydroxypropylcellulose) (HPC)) was 109 % of control.

In the case of `COc1cc(OC)c(NC(=O)c2ccc([N+](=O)[O-])s2)cc1Cl`, the T/C (dose: 25.0 mg/kg/injection, schedule: Q01DX005 (ip), vehicle: saline) is reported as 102 % of control and the T/C (dose: 50.0 mg/kg/injection, schedule: Q01DX005 (ip), vehicle: saline) is reported as 89 % of control.

In the case of `COc1cc2c(cc1OC)-c1c(C)c3ccc(OC)c(NCCN)c3c[n+]1CC2`, the T/C (dose: 3.12 mg/kg/injection, schedule: Q01DX005 (ip), vehicle: water) is reported as 100 % of control, the T/C (dose: 3.13 mg/kg/injection, schedule: Q04DX003 (ip), vehicle: water) is reported as 101 % of control and the T/C (dose: 6.25 mg/kg/injection, schedule: Q01DX005 (ip), vehicle: water) is reported as 97 % of control. The T/C (dose: 6.25 mg/kg/injection, schedule: Q04DX003 (ip), vehicle: water) was 108 % of control, the T/C (dose: 12.5 mg/kg/injection, schedule: Q01DX005 (ip), vehicle: water) was 100 % of control and the T/C (dose: 12.5 mg/kg/injection, schedule: Q04DX003 (ip), vehicle: water) was 110 % of control. For the same compound, the T/C (dose: 25.0 mg/kg/injection, schedule: Q01DX005 (ip), vehicle: water) was 98 % of control and the T/C (dose: 25.0 mg/kg/injection, schedule: Q04DX003 (ip), vehicle: water) was 98 % of control and 120 % of control.

`O=C(Nc1ccc(S(=O)(=O)O)cc1)c1ccc([N+](=O)[O-])cc1` was tested, and the T/C [1] was 100 % of control, the T/C [2] was 100 % of control and the T/C [8] was 100 % of control. The T/C [4] was 100 % of control, the T/C (dose: 176.0 mg/kg/injection, schedule: Q04DX003 (ip), vehicle: saline with Tween-80) was 100 % of control and the T/C (dose: 200.0 mg/kg/injection, schedule: Q04DX003 (ip), vehicle: saline) was 100 % of control. The T/C (dose: 264.0 mg/kg/injection, schedule: Q04DX003 (ip), vehicle: saline with Tween-80) was 110 % of control, the T/C (dose: 264.0 mg/kg/injection, schedule: Q04DX003 (ip), vehicle: saline) was 95 % of control and 120 % of control and the T/C (dose: 400.0 mg/kg/injection, schedule: Q04DX003 (ip), vehicle: saline with Tween-80) was 100 % of control.

In the case of `Cn1cnc2c(SCc3ccccc3)ncnc21`, the T/C [9] is reported as 109 % of control, the T/C (dose: 200.0 mg/kg/injection, schedule: Q01DX009 (ip), vehicle: saline with Tween-80) is reported as 113 % of control and the T/C (dose: 400.0 mg/kg/injection, schedule: Q01DX009 (ip), vehicle: saline with Tween-80) is reported as 90 % of control.

With `CCC(C)(C)c1ccc(OCCOS(=O)(=O)c2ccc(C)cc2)cc1` the T/C (dose: 12.5 mg/kg/injection, schedule: Q04DX003 (ip), vehicle: saline) was 95 % of control, the T/C (dose: 25.0 mg/kg/injection, schedule: Q04DX003 (ip), vehicle: saline) was 100 % of control and the T/C [3] was 91 % of control.

`O=C(NCCCCCCCCCCNC(=O)N1CC1)N1CC1` was tested, and the T/C (dose: 3.0 mg/kg/injection, schedule: Q04DX003 (ip), vehicle: saline with Tween-80) was 154 % of control and the T/C (dose: 4.5 mg/kg/injection, schedule: Q04DX003 (ip), vehicle: saline with Tween-80) was 241 % of control.

In the case of `CC(=O)O[C@H]1[C@H]2O[C@]23[C@@H]2CC[C@@H]4C[C@@H](O)CC[C@]4(C)[C@H]2CC[C@]3(C)[C@H]1c1ccc(=O)oc1`, the T/C (dose: 3.75 mg/kg/injection, schedule: Q01DX009 (ip), vehicle: Klucel (hydroxypropylcellulose) (HPC)) is reported as 100 % of control, the T/C (dose: 7.5 mg/kg/injection, schedule: Q01DX009 (ip), vehicle: Klucel (hydroxypropylcellulose) (HPC)) is reported as 104 % of control and the T/C (dose: 10.0 mg/kg/injection, schedule: Q01DX010 (ip), vehicle: carboxymethylcellulose (CMC)) is reported as 90 % of control. For the same compound, the T/C (dose: 20.0 mg/kg/injection, schedule: Q01DX010 (ip), vehicle: carboxymethylcellulose (CMC)) was 90 % of control.

In the case of `CO/C(O)=c1/nc2c(n(C)c1=N)=CCCC2`, the T/C (dose: 50.0 mg/kg/injection, schedule: Q01DX009 (ip), vehicle: saline with Tween-80) is reported as 100 % of control and the T/C [9] is reported as 104 % of control.

`Cc1ccc(S(=O)(=O)c2ccc(S(=O)(=O)c3ccc(C)cc3)c3c2no[n+]3[O-])cc1` was tested, and the T/C [6] was 107 % of control, the T/C [7] was 112 % of control and the T/C (dose: 60.0 mg/kg/injection, schedule: Q01DX009 (ip), vehicle: saline with Tween-80) was 112 % of control.
